From patent publication US10183015B2, “Heterocyclic compounds and methods of use” (Medivation Technologies LLC, priority 2015, dated 2019)
Several values for one entry are separate records, joined by “and”; a condition that tells them apart may be missing. Equal values may be shown once.

How the values were obtained:
Format in all cases: in vivo
SCD1 = assay: DIN mouse model: hepatic SCD1 gene expression; parameters: key to 2^DDct: expression relative to vehicle group, normalized to 18S; conditions: for 2^DDct / DDct / Dct / SCD1: Gene Expression: SCD1, 20 mg/kg group; for 18S: Gene Expression: SCD1 table, 18S reference, 20 mg/kg group
Procedure: (§1) Gene expression analysis. Hepatic expression levels of genes involved in lipid metabolism (FAS, SREBP1, ACC1, SCD1), cholesterol metabolism (HMG-CoAR, LDLR), SREBP proteolysis (SCAP, INSIG1), ER stress (PERK), oxidative stress (NRF2), inflammation (MCP-1), and fibrosis (collagen 1α1) were quantified by RTqPCR. Expression level was normalized to 18S gene expression and relative expression to vehicle group was calculated with the […] method.
(§2) Male C57Bl/6J mice (8 weeks old) were housed in enriched ventilated cages (31×12.5×12.7 cm) throughout the experimental phase. Animals' cages litters were changed at least once a week. Animal were housed 5 per cage on inverted 12-hour light cycle (at 09:00 am lights off), 22±2° C. and 55±10% relative humidity. The acclimation period was 20 days. During the acclimation period, all mice were fed a standard diet (RM1 (E) 801492, SDS) and tap water ad libitum. After the acclimation period, mice were fed with the DIN diet (60% fat, cholesterol enriched) and fructose-enriched tap water ad libitum until the end of the experiment.
(§3) At 6 weeks of diet, mice were 4-hour fasted (09:00 am to 1:00 pm) and blood (150 μl/EDTA) was collected at 01:00 pm by retro-orbital bleeding under isoflurane anesthesia. Mice were then allocated in 2 homogenous groups (n=12/group) according to their plasma levels of ALT (average levels: 685U/L), AST (average levels: 627U/L) and HOMA-IR index (average value: 4.7), into 2 homogenous groups (see values at day 0 in Tables 15A and 15B ALT/AST and Tables 16A and 16B for HOMA-IR). Mice were then treated once daily by oral gavage with vehicle (Group 1) or Compound #37 at 20 mg/kg (Group 2) for 70 days.
Hepatic expression levels of genes involved in lipid (FAS, SREBP1, ACC1, SCD1), cholesterol metabolism (HMG-CoAR, LDLR), in SREBP proteolysis (SCAP, INSIG1), in ER stress (PERK), oxidative stress (NRF2), and inflammation (MCP-1) were not changed. However, expression of collagen 1α1, involved in liver fibrosis, was reduced by 66% in mice treated with Compound #37 (p<0.05 vs. vehicle).

LDLR = assay: Short-term Paigen-diet NASH mouse model: hepatic LDLR gene expression (RT-qPCR); conditions: liver; for DDct: LDLR Dct relative to vehicle mean; for Dct: LDLR minus 18S; for 2DDct: LDLR relative expression to vehicle group, normalized to 18S; for LDLR: raw RT-qPCR value
Procedure: To investigate whether Compound #37 prevents the development of pathology associated with NASH and steatosis in an acute exploratory disease model, a study was conducted using a diet-induced acute liver steatosis model in mice. As described below, in this study, C57BL/6J mice were initiated on the Paigen diet and simultaneously treated with Compound #37 (5, 20, and 40 mg/kg/day) or vehicle control (20% HPβCD 10 mL/kg/day) by oral gavage for 21 days.
After acclimation, 8-week old male C57Bl/6J mice (Charles River) weighing about 25 g were randomized in 4 groups according their body weight and treated once daily around noon by oral gavage with vehicle, or Compound #37 at various for 21 days as follows: Group 1: vehicle-20% (2-hydroxypropyl)-β-cyclodextrin (HP-β-CD) (n=10); Group 2: Compound #37, 5 mg/kg (n=10) Group 3: Compound #37, 20 mg/kg (n=10) Group 4: Compound #37, 40 mg/kg (n=10). During the treatment period, body weight and food intake (measured over 24h) were measured 3 times per week and once a week, respectively. During the acclimation, all mice were fed a standard diet (Special Diets Services RM1 (E), product no. 801492) and tap water ad libitum. After the acclimation period, mice were fed until the end of the experiment with a 60% high fat Paigen diet (60 kcal % fat, 1.25% cholesterol, and 0.5% cholate; D11061901, Research Diet) and tap water ad libitum.
as §1

[1] = system: diet-induced NASH obese insulin resistant mice; assay: Diet-induced NASH (DIN) obese insulin-resistant mouse model: plasma ALT and AST; conditions: for ALAT area under the curve / ASAT area under the curve / ALAT, days of treatment 0 / ASAT, days of treatment 0 / ALAT, days of treatment 14 / ASAT, days of treatment 14 / ALAT, days of treatment 28 / ASAT, days of treatment 28 / ALAT, days of treatment 42 / ASAT, days of treatment 42 / ALAT, days of treatment 56 / ASAT, days of treatment 56 / ALAT, days of treatment 70 / ASAT, days of treatment 70: plasma; for ALAT area under the curve / ASAT area under the curve: 70-day treatment; for ALAT area under the curve / ASAT area under the curve / ALAT, days of treatment 0 / ASAT, days of treatment 0: 20 mg/kg; for ALAT, days of treatment 0 / ASAT, days of treatment 0: day 0 (baseline); for ALAT, days of treatment 14 / ASAT, days of treatment 14: day 14, 20 mg/kg; for ALAT, days of treatment 28 / ASAT, days of treatment 28: day 28, 20 mg/kg; for ALAT, days of treatment 42 / ASAT, days of treatment 42: day 42, 20 mg/kg; for ALAT, days of treatment 56 / ASAT, days of treatment 56: day 56, 20 mg/kg; for ALAT, days of treatment 70 / ASAT, days of treatment 70: day 70, 20 mg/kg
Procedure: as §2, §3
To investigate whether Compound #37 improves pre-existing steatosis/NASH pathology, a study was conducted using a 16-week diet-induced NASH mouse model. In this model, mice develop steatosis that progresses with inflammation and fibrosis that mimic many of the observed pathologies in human nonalcoholic fatty liver disease (NAFLD) and NASH (Hebbard & George, 2010). For 6 weeks, mice were fed a high-fat, high-cholesterol diet and provided drinking water containing fructose to induce liver pathology (Charlton et al, 2011). After 6 weeks, the mice were divided into 2 groups with similar mean aspartate aminotransferase (AST) and alanine aminotransferase (ALT) values (n=12 mice), although it should be noted that AST and ALT concentrations within both groups were higher and with greater variability than anticipated (e.g., mean ALT 677 U/L [SD, 401 U/L] in the vehicle control group and 693 U/L [SD, 365 U/L] in the Compound #37 group). After the animals were divided into 2 groups, the diet was continued for 10 additional weeks during which time 1 group received vehicle and the other was treated with 20 mg/kg/day Compound #37.

[2] = Compound #37 5 mg/kg, group mean, n=10
[3] = Compound #37 5 mg/kg, individual animals, 5 mg/kg
[4] = Compound #37 20 mg/kg, group mean, n=6
[5] = Compound #37 20 mg/kg, individual animals, 20 mg/kg

CC(C)Cc1cc(-c2nc(-c3ccc(NS(=O)(=O)C(F)(F)F)cc3Cl)cs2)ccn1 [Compound 37, N-(3-chloro-4-(2-(2-isobutylpyridin-4-yl)thiazol-4-yl)phenyl)-1,1,1-trifluoromethanesulfonamide]
2^DDct (SCD1; individual animal): 1.76 and 2.30 and 0.58 and 0.87 and 0.84 and 1.40 and 1.54 and 1.64 and 0.61 and 0.42 and 2.57
DDct (SCD1; individual animal): −0.81 and −1.20 and 0.78 and 0.20 and 0.26 and −0.48 and −0.62 and −0.71 and 0.72 and 1.25 and −1.36
Dct (SCD1; individual animal): 4.5 and 4.11 and 6.09 and 5.51 and 5.57 and 4.83 and 4.69 and 4.6 and 6.03 and 6.56 and 3.95
SCD1 (SCD1; individual animal): 17.05 and 16.66 and 18.93 and 17.94 and 17.92 and 17.42 and 16.42 and 17.11 and 17.53 and 18.11 and 16.3
2^DDct (SCD1; mean, n 11): 1.32
DDct (SCD1; mean, n 11): −0.18
Dct (SCD1; mean, n 11): 5.1
SCD1 (SCD1; mean, n 11): 17.4
18S (SCD1; individual animal, 20 mg/kg): 12.55 (2×) and 12.84 and 12.43 and 12.35 (2×) and 12.59 and 11.73 and 12.51 and 11.5 and 11.55
18S (SCD1; mean, n 11): 12.3
DDct (LDLR; [2]): 0.18
DDct (LDLR; [3]): −0.92 and 0.13 and −0.60 and −0.98 and 1.46 and 1.39 and 0.04 and 0.33 and 0.52 and 0.37
DDct (LDLR; [4]): −0.09
DDct (LDLR; [5]): 0.38 and 0.91 and 0.32 and −1.22 and 0.42 and −1.37
Dct (LDLR; [2]): 12.8
Dct (LDLR; [3]): 11.74 and 12.79 and 12.06 and 11.68 and 14.12 and 14.05 and 12.7 and 12.99 and 13.18 and 13.03
Dct (LDLR; [4]): 12.6
Dct (LDLR; [5]): 13.04 and 13.57 and 12.98 and 11.44 and 13.08 and 11.29
2DDct (LDLR; [2]): 1.03
2DDct (LDLR; [3]): 1.89 and 0.91 and 1.51 and 1.97 and 0.36 and 0.38 and 0.97 and 0.79 and 0.70 and 0.77
2DDct (LDLR; [4]): 1.29
2DDct (LDLR; [5]): 0.77 and 0.53 and 0.80 and 2.33 and 0.75 and 2.58
LDLR (LDLR; [2]): 25.1
LDLR (LDLR; [3]): 25.2 and 25.9 and 23.67 and 25.03 and 26.15 and 27.4 and 24.3 and 24.78 and 24.32 and 24.15
LDLR (LDLR; [4]): 24.8
LDLR (LDLR; [5]): 25.95 and 25.86 and 25.18 and 24.47 and 24.57 and 22.55
hepatotoxicity (transaminase concentrations) ([1]; 20 mg/kg/day, 10 weeks): No evidence of hepatotoxicity
ALAT area under the curve ([1]; group mean, n 11): 12252 U/L · day
ASAT area under the curve ([1]; group mean, n 11): 10763 U/L · day
ALAT area under the curve ([1]; individual animals): 18578 U/L · day and 17206 U/L · day and 11865 U/L · day and 9163 U/L · day and 5418 U/L · day and 9331 U/L · day and 17759 U/L · day and 11949 U/L · day and 16954 U/L · day and 8862 U/L · day and 7686 U/L · day
ASAT area under the curve ([1]; individual animals): 18662 U/L · day and 15001 U/L · day and 8456 U/L · day and 8141 U/L · day and 5607 U/L · day and 6573 U/L · day and 11550 U/L · day and 10388 U/L · day and 13167 U/L · day and 11690 U/L · day and 9163 U/L · day
ALAT, days of treatment 0 ([1]; group mean, n 12): 693 U/L
ASAT, days of treatment 0 ([1]; group mean, n 12): 615 U/L
ALAT, days of treatment 0 ([1]; individual animals): 1520 U/L and 698 U/L and 955 U/L and 551 U/L and 226 U/L and 365 U/L and 625 U/L and 563 U/L and 830 U/L and 662 U/L and 260 U/L and 1065 U/L
ASAT, days of treatment 0 ([1]; individual animals): 1440 U/L and 875 U/L and 584 U/L and 435 U/L and 217 U/L and 269 U/L and 464 U/L and 500 U/L and 725 U/L and 730 U/L and 283 U/L and 860 U/L
ALAT, days of treatment 14 ([1]; group mean, n 12): 255 U/L
ASAT, days of treatment 14 ([1]; group mean, n 12): 249 U/L
ALAT, days of treatment 14 ([1]; individual animals): 250 U/L and 252 U/L (2×) and 218 U/L and 200 U/L and 92 U/L and 198 U/L and 256 U/L and 410 U/L and 690 U/L and 134 U/L and 106 U/L
ASAT, days of treatment 14 ([1]; individual animals): 296 U/L and 268 U/L and 206 U/L and 228 U/L and 124 U/L and 150 U/L and 190 U/L and 288 U/L and 440 U/L and 248 U/L and 428 U/L and 126 U/L
ALAT, days of treatment 28 ([1]; group mean, n 12): 146 U/L
ASAT, days of treatment 28 ([1]; group mean, n 12): 146 U/L
ALAT, days of treatment 28 ([1]; individual animals): 176 U/L and 118 U/L and 96 U/L and 68 U/L and 58 U/L and 316 U/L and 226 U/L and 154 U/L and 160 U/L and 208 U/L and 38 U/L and 136 U/L
ASAT, days of treatment 28 ([1]; individual animals): 238 U/L and 98 U/L and 84 U/L and 76 U/L and 80 U/L and 168 U/L and 140 U/L and 102 U/L and 222 U/L and 288 U/L and 68 U/L and 190 U/L
ALAT, days of treatment 42 ([1]; group mean, n 12): 143 U/L
ASAT, days of treatment 42 ([1]; group mean, n 12): 136 U/L
ALAT, days of treatment 42 ([1]; individual animals): 68 U/L and 280 U/L and 52 U/L and 50 U/L (2×) and 136 U/L and 58 U/L and 168 U/L and 92 U/L and 66 U/L and 370 U/L and 322 U/L
ASAT, days of treatment 42 ([1]; individual animals): 88 U/L and 132 U/L and 80 U/L and 110 U/L and 140 U/L and 96 U/L and 200 U/L and 106 U/L and 130 U/L and 76 U/L and 174 U/L and 296 U/L
ALAT, days of treatment 56 ([1]; group mean, n 11): 136 U/L
ASAT, days of treatment 56 ([1]; group mean, n 11): 126 U/L
ALAT, days of treatment 56 ([1]; individual animals): 276 U/L and 80 U/L and 48 U/L and 68 U/L and 52 U/L and 54 U/L and 112 U/L and 130 U/L and 534 U/L and 70 U/L and 74 U/L
ASAT, days of treatment 56 ([1]; individual animals): 346 U/L and 122 U/L and 92 U/L and 108 U/L and 60 U/L and 96 U/L and 132 U/L and 112 U/L and 182 U/L and 130 U/L and 164 U/L
ALAT, days of treatment 70 ([1]; group mean, n 11): 413 U/L
ASAT, days of treatment 70 ([1]; group mean, n 11): 281 U/L
ALAT, days of treatment 70 ([1]; individual animals): 364 U/L and 1030 U/L and 326 U/L and 372 U/L and 210 U/L and 342 U/L and 1150 U/L and 358 U/L and 142 U/L (2×) and 104 U/L
ASAT, days of treatment 70 ([1]; individual animals): 258 U/L and 648 U/L and 162 U/L and 206 U/L and 180 U/L and 160 U/L and 524 U/L and 376 U/L and 182 U/L and 198 U/L and 192 U/L
